The test system of assay [1] is thymidine uptake (nucleoside transport, es and ei equilibrative carriers) in L1210 cells. Briefly: Nucleoside transport inhibition assay (thymidine uptake, rapid mixing technique). Format: cell-based, murine. Particulars: L1210; for IC50: absence of AGP, point-to-point curve. From the text: Antimetabolite inhibitors of de novo purine and pyrimidine synthesis are used extensively in cancer chemotherapeutic regimes (Schilsky, 1992). In particular, inhibition of thymidylate synthase (TS) is an attractive target for antimetabolite chemotherapy because thymine is the only nucleobase found exclusively in DNA and TS is a key enzyme, possibly the rate-limiting step, in DNA synthesis. One locus of action of 5-fluorouracil (5-FU), which is widely used for the treatment of colorectal, breast and head-and- neck cancer, is TS inhibition following its intracellular conversion to 5-FdUMP. […] Inhibition of TS results in the depletion of intracellular dTTP and, as a result of elevated dUMP levels, an accummulation of dUTP. This nucleotide pool imbalance contributes to DNA strand breakage and cell death (Curtin et al, 1991). […] Furthermore, resistance to antimetabolities mediated by nucleoside salvage may increase with malignancy (Fox et al, 1991; Kinsella and Harran, 1991). In addition, release of nucleic acids from dead cells may result in high local concen- trations of salvageable nucleosides and bases in tumours. Salvage of pre-formed nucleosides is dependent on uptake across the plasma membrane into the cell. At physiological nucle- oside concentrations the principal mode of nucleoside uptake is via the es and ei equilibrative carriers, described as such on the basis of their sensitivity (es) or insensitivity (ei) to the transport inhibitor nitrobenzylmercaptopurine riboside (NBMPR). […] Two antifolate TS inhibitors were selected for study: the classical antifolate, CB3717 (N10 -pro- pargyl-5,8-dideazafolic acid), and the non-classical antifolate TS inhibitor, nolatrexed (AG337, Thymitaq, 3,4-dihydro-2-amino- 6-methyl-4-oxo-5-(4-pyridylthio)-quinazoline dihydrochloride) (Webber et al, 1996). In addition, potentiation of the cytotoxicity of 5-FU was investigated. […] MATERIALS AND METHODS Drugs CB3717 (a gift from Zeneca Pharmaceuticals, Alderley Park, UK) was dissolved in 0.15 M sodium hydrogen carbonate and stored at 4C. […] All other chemicals were obtained from Sigma unless stated otherwise. Cell culture Murine leukaemia L1210 cells were used because their nucleoside transport characteristics have been well defined (Crawford et al, 1990). Cells were maintained as exponentially growing cultures (< 8 x 10^5 cells ml-1 ) in RPMI-1640 medium supplemented with 10% (v/v) fetal calf serum (Sigma), at 37C in an atmosphere of 5% carbon dioxide in air. […] For growth inhibition and cytotoxicity assays, cells were adapted to grow in RPMI medium supplemented with 10% (v/v) dialysed serum (dialysed for 24 h at 4C against two changes of 9 volumes of phosphate-buffered saline (PBS) containing 1 g activated charcoal L-1 and a further two changes of 9 volumes of PBS) to remove thymidine. […] Cells were routinely tested to exclude mycoplasma contamination (Chen, 1977). Nucleoside transport inhibition assay Thymidine uptake was assayed in L1210 cells using a modifica- tion of the rapid mixing technique of Wohlheuter et al (1978). The uptake of 100 µM thymidine by […] was followed at 2-second intervals over a 12-second time course in the presence or absence of inhibitor in 1% or 5% (v/v) DMSO. In experiments to determine the effect of AGP, the uptake of thymidine was also measured in the presence of 5 mg ml-1 human AGP (Sigma), which is the upper limit of plasma AGP concentrations in cancer patients, i.e. approx- imately 125 M (Kremer et al, 1988).

Another assay concerns L1210 cells. Put plainly: Growth inhibition assay, CB3717 with or without thymidine and transport inhibitor, 48 h cell count. Particulars: for % Control cell growth + 3 M CB3717, + 1 M TdR / % Control cell growth + 3 M CB3717, no TdR / % Control cell growth + 10 M CB3717, + 1 M TdR / % Control cell growth + 10 M CB3717, no TdR: 10 μM transport inhibitor, normalized to inhibitor alone. Format: cell-based, murine.

Where [2] appears, read: inhibitor 1 μM, no AGP, 100 μM thymidine.
The mark [3] stands for this setting: inhibitor 10 μM + 5 mg ml-1 AGP.
Where [4] appears, read: inhibitor 10 μM, no AGP, 100 μM thymidine.
[5] abbreviates: 1 μM transport inhibitor, data not shown.

SMILES strings stand for the structures. Where “and” joins values, the source holds several entries; their conditions need not be identical. Identical values can stand only once.

The term IC50 denotes the midpoint of a concentration-inhibition curve. Regarding `COCC(COc1nc(N2CCCCC2)c2nc(OCC(COC)OC)nc(N3CCCCC3)c2n1)OC` (stereo not shown) [NU3059, 2,6-bis-(2,3-dimethoxypropoxy)-4,8-di-piperidino-pyrimidopyrimidine], in assay [1], the IC50 came out at 1900 nM. For the same compound, the “% inhibition of thymidine uptake” value in assay [1] (setting [2]) is reported as 38%. For the same compound, the “% inhibition of thymidine uptake” value in assay [1] (setting [3]) is given as 67%. Moreover, the “% inhibition of thymidine uptake” value in assay [1] (setting [4]) was 87%. In addition, in the assay on L1210 cells (setting [5]), the “potentiation of CB3717 growth inhibition” value is listed as “modest potentiation” and the “reversal of thymidine rescue from CB3717 growth inhibition” value is on record as “partial reversal”. In addition, in the assay on L1210 cells (48 h), the “% Control cell growth + 3 M CB3717, + 1 M TdR” value worked out at 10%; the “% Control cell growth + 3 M CB3717, no TdR” value was determined as 5%; the “% Control cell growth + 10 M CB3717, + 1 M TdR” value came to 7%; the “% Control cell growth + 10 M CB3717, no TdR” value worked out at 0%.

With `CC1(C)OCC(COc2nc(N3CCCCC3)c3nc(OCC4COC(C)(C)O4)nc(N4CCCCC4)c3n2)O1` (stereo not shown) [NU3026, 2,6-di-(2,2-dimethyl-1,3-dioxolan-4-yl)-methoxy-4,8-di-piperidinopyrimido-pyrimidine], in assay [1], the IC50 was 1200 nM and 1100 nM. The “% inhibition of thymidine uptake” value in assay [1] (setting [2]) amounted to 47%. Also, in assay [1] (setting [3]), the “% inhibition of thymidine uptake” value turned out to be 62%. Further, the “% inhibition of thymidine uptake” value in assay [1] (setting [4]) was 87%. Moreover, the “potentiation of CB3717 growth inhibition” value in the assay with L1210 cells (setting [5]) is “modest potentiation”. In the assay on L1210 cells (48 h), the “% Control cell growth + 3 M CB3717, + 1 M TdR” value is 26%; the “% Control cell growth + 3 M CB3717, no TdR” value is reported as 8%; the “% Control cell growth + 10 M CB3717, + 1 M TdR” value is listed as 20%; the “% Control cell growth + 10 M CB3717, no TdR” value was 1%.

As to `COCCN(CCOC)c1nc(N2CCCCC2)c2nc(N(CCOC)CCOC)nc(N3CCCCC3)c2n1` [NU3060, 2,6-bis[N,N-di(2-methoxy)ethyl]-4,8-di-piperidino-pyrimidopyrimidine], in assay [1], the IC50 worked out at 2100 nM. Moreover, the “% inhibition of thymidine uptake” value in assay [1] (setting [2]) is recorded as 29%. For the same compound, the “% inhibition of thymidine uptake” value in assay [1] (setting [3]) worked out at 43%. In addition, the “% inhibition of thymidine uptake” value in assay [1] (setting [4]) stood at 86%. Also, in the assay with L1210 cells (48 h), the “% Control cell growth + 3 M CB3717, + 1 M TdR” value is recorded as 59%; the “% Control cell growth + 3 M CB3717, no TdR” value is 29%; the “% Control cell growth + 10 M CB3717, + 1 M TdR” value is reported as 37%; the “% Control cell growth + 10 M CB3717, no TdR” value amounted to 3%.

As for `C#CCN(Cc1ccc2nc(N)[nH]c(=O)c2c1)c1ccc(C(=O)N[C@@H](CCC(=O)O)C(=O)O)cc1` [CB3717, N10-propargyl-5,8-dideazafolate, reference compound], in the assay with L1210 cells (No inhibitor, 48 h), the “% Control cell growth, 3 M CB3717, + 1 M TdR” value is on record as 104%; the “% Control cell growth, 3 M CB3717, no TdR” value is recorded as 40%; the “% Control cell growth, 10 M CB3717, + 1 M TdR” value was determined as 107%; the “% Control cell growth, 10 M CB3717, no TdR” value was 5%.
